Assay results: PubChem BioAssay AID248 (DTP/NCI, 2004)
Where “and” joins values, the source holds several entries; their conditions need not be identical. Identical values can stand only once. Toxic doses and inconclusive results are not listed. No stated cut-off is given here; in the data, active means T/C of 150% or more; inactive means T/C below 125%.

Tested on: L1210 leukemia ip in BDF1 mice, survival T/C
Assay: NCI In Vivo Anticancer Drug Screen. Data for tumor model L1210 Leukemia (intraperitoneal) in B6D2F1 (BDF1) mice
Details: endpoint: mean survival time, higher = longer survival
Outline: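 Antitumor effect is assessed in tumor-bearing animals. Survival in the compound arm is compared with a vehicle-dosed control arm and expressed as their quotient.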

[1] = dose: 50.0 mg/kg/injection, schedule: Q01DX001 (ip), vehicle: saline
[2] = dose: 100.0 mg/kg/injection, schedule: Q01DX001 (ip), vehicle: saline
[3] = dose: 200.0 mg/kg/injection, schedule: Q01DX001 (ip), vehicle: saline
[4] = dose: 100.0 mg/kg/injection, schedule: Q04DX003 (ip), vehicle: saline
[5] = dose: 400.0 mg/kg/injection, schedule: Q01DX001 (ip), vehicle: saline
[6] = dose: 100.0 mg/kg/injection, schedule: Q01DX009 (ip), vehicle: Klucel (hydroxypropylcellulose) (HPC)
[7] = dose: 200.0 mg/kg/injection, schedule: Q01DX009 (ip), vehicle: Klucel (hydroxypropylcellulose) (HPC)
[8] = dose: 200.0 mg/kg/injection, schedule: Q04DX002 (ip), vehicle: saline with Tween-80
[9] = dose: 400.0 mg/kg/injection, schedule: Q04DX002 (ip), vehicle: saline with Tween-80

Measured: T/C

Fc1ccc(NC(=S)Nc2ccc(F)cc2)cc1
inactive: dose: 15.0 mg/kg/injection, schedule: Q01DX Z (ip), vehicle: carboxymethylcellulose (CMC) 98 % of control | dose: 30.0 mg/kg/injection, schedule: Q01DX Z (ip), vehicle: carboxymethylcellulose (CMC) 101 % of control | [1] 117 % of control | dose: 60.0 mg/kg/injection, schedule: Q01DX Z (ip), vehicle: carboxymethylcellulose (CMC) 101 % of control and 104 % of control | [2] 113 % of control | dose: 120.0 mg/kg/injection, schedule: Q01DX Z (ip), vehicle: carboxymethylcellulose (CMC) 101 % of control and 106 % of control | [3] 120 % of control | dose: 240.0 mg/kg/injection, schedule: Q01DX Z (ip), vehicle: carboxymethylcellulose (CMC) 100 % of control | dose: 240.0 mg/kg/injection, schedule: Q01DX Z (oral), vehicle: carboxymethylcellulose (CMC) 95 % of control | dose: 480.0 mg/kg/injection, schedule: Q01DX Z (ip), vehicle: carboxymethylcellulose (CMC) 106 % of control | dose: 480.0 mg/kg/injection, schedule: Q01DX Z (oral), vehicle: carboxymethylcellulose (CMC) 104 % of control | dose: 960.0 mg/kg/injection, schedule: Q01DX Z (oral), vehicle: carboxymethylcellulose (CMC) 107 % of control | dose: 1920.0 mg/kg/injection, schedule: Q01DX Z (oral), vehicle: carboxymethylcellulose (CMC) 100 % of control

CC(C)(C)CC(C)(C)c1ccc(OCCOc2ccc(C(N)=O)cc2[N+](=O)[O-])cc1
inactive: [4] 94 % of control | dose: 200.0 mg/kg/injection, schedule: Q04DX003 (ip), vehicle: saline 105 % of control | dose: 400.0 mg/kg/injection, schedule: Q04DX003 (ip), vehicle: saline 97 % of control

CCC1OC(=O)CC(O)C(C)C(OC2OC(C)CC(N(C)C)C2O)C(CC=O)CC(C)C(=O)/C=C/C2(C)OC2C1C (stereo unspecified)
inactive: dose: 75.0 mg/kg/injection, schedule: Q01DX009 (ip), vehicle: saline with Tween-80 93 % of control | dose: 150.0 mg/kg/injection, schedule: Q01DX009 (ip), vehicle: saline with Tween-80 102 % of control

CC(C)Oc1ccc(C(N)=S)c2ccccc12
inactive: dose: 100.0 mg/kg/injection, schedule: Q01DX001 (ip), vehicle: Klucel (hydroxypropylcellulose) (HPC) 105 % of control | dose: 200.0 mg/kg/injection, schedule: Q01DX001 (ip), vehicle: Klucel (hydroxypropylcellulose) (HPC) 109 % of control | dose: 400.0 mg/kg/injection, schedule: Q01DX001 (ip), vehicle: Klucel (hydroxypropylcellulose) (HPC) 102 % of control

CC12CCC(=O)C=C1CC(Sc1ccc(N(CCCl)CCCl)cc1)C1C2CCC2(C)C(O)CCC12 (stereo unspecified)
inactive: dose: 100.0 mg/kg/injection, schedule: Q01DX001 (sc), vehicle: steriod suspending solution 108 % of control | dose: 200.0 mg/kg/injection, schedule: Q01DX001 (sc), vehicle: steriod suspending solution 108 % of control | dose: 400.0 mg/kg/injection, schedule: Q01DX001 (sc), vehicle: steriod suspending solution 100 % of control

O=S(=O)(c1cc(Br)ccc1O)c1cc(Br)ccc1O
inactive: [2] 97 % of control | dose: 100.0 mg/kg/injection, schedule: Q04DX002 (ip), vehicle: gum acacia 93 % of control | [3] 95 % of control | dose: 200.0 mg/kg/injection, schedule: Q04DX002 (ip), vehicle: gum acacia 93 % of control | [5] 103 % of control | dose: 400.0 mg/kg/injection, schedule: Q04DX002 (ip), vehicle: gum acacia 93 % of control

CCOC(=O)CC(CC(=O)OCC)NC(=O)c1ccc(N(C)C(=O)OCc2ccccc2)cc1
inactive: dose: 100.0 mg/kg/injection, schedule: Q01DX001 (ip), vehicle: carboxymethylcellulose (CMC) 97 % of control | dose: 200.0 mg/kg/injection, schedule: Q01DX001 (ip), vehicle: carboxymethylcellulose (CMC) 100 % of control | dose: 400.0 mg/kg/injection, schedule: Q01DX001 (ip), vehicle: carboxymethylcellulose (CMC) 105 % of control

Cc1c(CCO)sc[n+]1Cc1ccccc1[N+](=O)[O-]
inactive: dose: 5.0 mg/kg/injection, schedule: Q01DX001 (ip), vehicle: saline 102 % of control | dose: 10.0 mg/kg/injection, schedule: Q01DX001 (ip), vehicle: saline 100 % of control | dose: 20.0 mg/kg/injection, schedule: Q01DX001 (ip), vehicle: saline 102 % of control | dose: 40.0 mg/kg/injection, schedule: Q01DX001 (ip), vehicle: saline 105 % of control | dose: 80.0 mg/kg/injection, schedule: Q01DX001 (ip), vehicle: saline 98 % of control | [2] 93 % of control

CCN(CC)C(=O)COc1ccc(Cl)cc1
inactive: dose: 100.0 mg/kg/injection, schedule: Q04DX002 (ip), vehicle: saline 114 % of control | dose: 200.0 mg/kg/injection, schedule: Q04DX002 (ip), vehicle: saline 107 % of control | dose: 400.0 mg/kg/injection, schedule: Q04DX002 (ip), vehicle: saline 118 % of control

COc1ccc(C(CC(=O)c2ccccc2)Sc2ccccc2N)cc1OC (stereo unspecified)
inactive: dose: 50.0 mg/kg/injection, schedule: Q01DX009 (ip), vehicle: Klucel (hydroxypropylcellulose) (HPC) 97 % of control | dose: 100.0 mg/kg/injection, schedule: Q01DX005 (ip), vehicle: Klucel (hydroxypropylcellulose) (HPC) 101 % of control | [6] 94 % of control | dose: 100.0 mg/kg/injection, schedule: Q04DX002 (ip), vehicle: saline with Tween-80 98 % of control | dose: 200.0 mg/kg/injection, schedule: Q01DX005 (ip), vehicle: Klucel (hydroxypropylcellulose) (HPC) 108 % of control | [7] 94 % of control | [8] 106 % of control | [9] 113 % of control

CCOC(=O)Nc1cc2c(c(NC(=O)OCC)n1)N=C(C)CN2 (tested in a mixture with another compound)
inactive: dose: 100.0 mg/kg/injection, schedule: Q01DX001 (ip), vehicle: saline with Tween-80 95 % of control | dose: 200.0 mg/kg/injection, schedule: Q01DX001 (ip), vehicle: saline with Tween-80 95 % of control | [8] 95 % of control | dose: 400.0 mg/kg/injection, schedule: Q01DX001 (ip), vehicle: saline with Tween-80 95 % of control | [9] 103 % of control | dose: 600.0 mg/kg/injection, schedule: Q04DX002 (ip), vehicle: saline with Tween-80 103 % of control

NC(N)=Nc1ccc(-c2ccc(N=C(N)N)cc2)cc1
inactive: dose: 12.5 mg/kg/injection, schedule: Q01DX Z (oral), vehicle: saline 97 % of control | dose: 25.0 mg/kg/injection, schedule: Q01DX Z (oral), vehicle: saline 106 % of control | dose: 50.0 mg/kg/injection, schedule: Q01DX Z (oral), vehicle: saline 101 % of control | dose: 100.0 mg/kg/injection, schedule: Q01DX Z (oral), vehicle: saline 105 % of control | dose: 200.0 mg/kg/injection, schedule: Q01DX Z (oral), vehicle: saline 100 % of control

O=C1NC(=O)C(c2cccc(F)c2)N1 (stereo unspecified)
inactive: [1] 97 % of control | [2] 94 % of control | [3] 94 % of control | [5] 111 % of control

COS(=O)(=O)CCCCCC[N+](C)(C)C
inactive: [1] 93 % of control | [2] 102 % of control | [3] 98 % of control

CCOc1c(Br)cc(Br)cc1C=C(C#N)C#N
inactive: dose: 25.0 mg/kg/injection, schedule: Q01DX009 (ip), vehicle: other 102 % of control | dose: 50.0 mg/kg/injection, schedule: Q01DX009 (ip), vehicle: other 98 % of control | dose: 100.0 mg/kg/injection, schedule: Q04DX003 (ip), vehicle: other 102 % of control | dose: 200.0 mg/kg/injection, schedule: Q04DX003 (ip), vehicle: other 108 % of control

CSc1ncnc2c1nnn2C1OC(COC(=O)c2ccccc2)C(OC(=O)c2ccccc2)C1OC(=O)c1ccccc1 (stereo unspecified)
inactive: dose: 50.0 mg/kg/injection, schedule: Q01DX009 (ip), vehicle: gum acacia 93 % of control | dose: 100.0 mg/kg/injection, schedule: Q01DX001 (ip), vehicle: gum acacia 92 % of control | dose: 100.0 mg/kg/injection, schedule: Q01DX009 (ip), vehicle: gum acacia 89 % of control | dose: 200.0 mg/kg/injection, schedule: Q01DX001 (ip), vehicle: gum acacia 87 % of control

C[n+]1cccc2ccccc21
inactive: dose: 12.5 mg/kg/injection, schedule: Q04DX003 (ip), vehicle: saline 96 % of control | dose: 25.0 mg/kg/injection, schedule: Q04DX003 (ip), vehicle: saline 93 % of control and 91 % of control | dose: 50.0 mg/kg/injection, schedule: Q04DX003 (ip), vehicle: saline 93 % of control and 95 % of control | [4] 93 % of control and 105 % of control

CC(=O)c1cccc(NC(=O)c2c(Br)c(Br)c(Br)c(Br)c2C(=O)O)c1
inactive: [6] 97 % of control | [7] 104 % of control | dose: 400.0 mg/kg/injection, schedule: Q01DX009 (ip), vehicle: Klucel (hydroxypropylcellulose) (HPC) 109 % of control

c1ccc([B-](c2ccccc2)(c2ccccc2)[C+]2CCCCC2)cc1 (tested in a mixture with another compound)
inactive: [2] 105 % of control | [3] 108 % of control | [5] 108 % of control
